Laboratory results published in patent US20040170959A1, “Methods for identifying antiviral oligonucleotides” (priority 2002, published 2004).

Tests used:
[1] = human, in vivo; cited from earlier work
Hep2 cells = conditions: uninfected cells treated 7 days
Hepatitis C virus (HCV) = conditions: prolonged therapy; cited from earlier work

Molecule: Nc1nc(O)c2ncn(COC(CO)CO)c2n1 [ganciclovir]
- neutropenia and thrombocytopenia, share of patients treated [1]: 40%

Molecule: O=c1[nH]c(=O)n([C@H]2C[C@H](O)[C@@H](CO)O2)cc1I [idoxuridine]
- allergic reactions, share of patients treated [1]: 35%

Molecule: NC(=O)c1ncn([C@@H]2O[C@H](CO)[C@@H](O)[C@H]2O)n1 [Ribavirin]
- toxicity in Hep2 cells (Hep2 cells): significantly toxic

Molecule: interferon alpha
- share of patients in whom therapy is effective (Hepatitis C virus (HCV)): about 40% of patients
